Reference: patent US20200221654A9, “APPLICATIONS OF ROOT-ADMINISTERED CHEMICAL HYBRIDIZING AGENTS IN PLANT BREEDING” (BAYER CROPSCIENCE AKTIENGESELLSCHAFT, priority 2016, published 2020)

Assays:
Type in all cases: in vivo
[1] = test system: Wheat plants of the wheat varieties JB Asano and Apache; assay: Male sterility after a single root application (watering) of Clofencet to potted wheat plants, seed set of bagged ears (Example 1); details: for Average sterility relative to control: 1 root treatment, Zadok stage 31
Procedure: Wheat plants of the wheat varieties JB Asano and Apache were grown in the greenhouse in standard planting pots, bottom perforated, edge length 12 cm, height 13 cm, with one plant per pot. Twelve pots were placed into a plastic tray, bottom non-perforated with fleece inlay (e.g. available at Hermann Meyer KG unter article no. 44 54 11). Standard greenhouse growing substrate soil (bedding substrate 1 of Klasmann-Deilmann GmbH) was filled into the pot ca. 2 cm below edge. Plants were grown under standard growing conditions with respect to fertilizer, watering, disease and light management. Each plant was reduced to 4 tillers. The necessary active amount of Clofencet per plant was calculated according to the standard foliar spray application protocol of 5.42 kg per hectare assuming 400 ears per square meter taking the higher tiller number of potted plants into account (average number of ears per plant in the field is typically 1.15 but it was 4 in our potted plants, so the dose rate for root application per plant, i.e. per pot, was adjusted upward). At Zadoks growth stage 31 the plants were watered with 0.0 mg (control), 10.84 mg, 16.26 mg and 21.68 mg, respectively, of Clofencet in 200 ml tap water per pot. Each treatment was repeated on 12 plants, whereas the highest concentration was repeated on 24 plants. Before flowering time (Zadoks stage 57 of control group) ears were bagged to avoid unwanted cross-pollination. Bags were removed at beginning of grain filling (Zadoks stage 75 and higher), seed set was determined at kernel ripeness of the control group. When ears carried mature seeds, the ears were threshed with a hand-threshing device (Baumann Dreschhexe #4.701.200) and the kernels per plant were counted. A wheat ear is called completely sterile (=100% sterility) when no kernel developed on a bagged ear. The average number of grains per plant of the control plants was set to 0% sterility.

[2] = test system: Wheat plants of the wheat varieties JB Asano and Apache; assay: Female fertility: seed set of Clofencet-treated male sterile plants after pollination with pollen from an untreated control plant (Example 3); details: for Average seed set of Clofencet treated plants after pollination with wheat pollen (rel. to control): 1 root treatment, Zadok stage 31
Text: Male sterile plants generated by Clofencet treatment as described in Example 1 were used. Before single bagging the 4 ears of each plant at Zadoks stages 55-59, flowers were clipped to facilitate pollination. At flowering time (spikelets wide open) three male-sterile ears (no pollen in the transparent bags) were pollinated with pollen from an untreated control plant of the same wheat variety. One sterile ear was not pollinated to cross check the efficacy of the Clofencet treatment. Bags were removed at beginning of grain filling (Zadoks stage 75 and higher), seed set was determined at kernel maturity. If ears had set seed, the ears were threshed with a hand-threshing device (Baumann Dreschhexe #4.701.200) and the kernels per plant were counted. The average number of grains per plant of the control plants was set to 100% seed set.

[3] = test system: Wheat plants of the wheat varieties JB Asano and KWS Target; assay: Male sterility after weekly root application (watering) of WL84811 to potted wheat plants, seed set of bagged ears (Example 2); details: for Average sterility relative to control after CHA: 1.0 mg/plant WL84811 in 100 ml water per treatment, 11 weekly root treatments (total 11.0 mg/plant), Zadok stage 31 to 65
Procedure: Wheat plants of the wheat varieties JB Asano and KWS Target were grown in the greenhouse in standard planting pots, bottom perforated, edge length 12 cm, height 13 cm, with one plant per pot. Twelve pots were placed into a plastic tray, bottom non-perforated with fleece inlay. Sandy loam from the field was filled into the pots ca. 2 cm below edge. Plants were grown under standard growing conditions with respect to fertilizer, watering, disease and light management. Each plant per pot was reduced to 4 tillers. The treatment was watering each pot with 0.0 mg (control) or 1.0 mg WL84811 in 100 ml tap water per pot. Each treatment was repeated on 2 plants per variety, watering with the treatment was done once a week for 11 weeks starting at Zadoks growth stage 31 until growth stage 65 of the control group. Ears were bagged to avoid unwanted cross-pollination. Bags were removed at beginning of grain filling (Zadoks stage 75 and higher), seed set was determined at kernel maturity of the control group. When ears had set seed, the ears were threshed by hand and the kernels per plant were counted. A wheat ear is called completely sterile (=100% sterility) when no kernel was developed on a bagged ear. The average number of grains per plant of the control plants was set to 0% sterility.

[4] = variety Apache, 10.84 mg/plant Clofencet in 200 ml water
[5] = variety Apache, 16.26 mg/plant Clofencet in 200 ml water
[6] = variety Apache, 21.68 mg/plant Clofencet in 200 ml water
[7] = variety JB Asano, 10.84 mg/plant Clofencet in 200 ml water
[8] = variety JB Asano, 16.26 mg/plant Clofencet in 200 ml water
[9] = variety JB Asano, 21.68 mg/plant Clofencet in 200 ml water

CCc1c(C(=O)O)c(=O)cnn1-c1ccc(Cl)cc1 [Clofencet, 2-(4-chlorophenyl)-3-ethyl-2,5-dihydro-5-oxopyridazine-4-carboxylic acid]
further effect on male sterility at higher doses (data not shown) ([1]; doses of active substance higher than 21.68 mg per plant): do not have any further positive effect | male sterility ([1]; single root application dose of 10.84 mg per plant with four tillers at growth stage 31): satisfying amount of average male sterility | male sterility ([1]; single root application of 16.26 mg per plant at growth stage 31): ~100% | Average sterility relative to control [1, 4]: 91.88% | Average sterility relative to control [1, 5]: 98.69% | Average sterility relative to control [1, 6]: 99.64% | Average sterility relative to control [1, 7]: 94.72% | Average sterility relative to control [1, 8]: 99.96% | Average sterility relative to control [1, 9]: 98.65% | seed set of bagged plants ([1]; watered once with an active dose of 16.26 mg or more in Zadoks stage 31): Almost no plants | female fertility of the treated plants ([2]; root treatment once, pollinated with pollen of untreated control plants): does not harm the female fertility | seed set compared to the control with 100% seed set ([2]; variety Apache): even seems to enhance seed set | Average seed set of Clofencet treated plants after pollination with wheat pollen (rel. to control) [2, 4]: 101% | Average seed set of Clofencet treated plants after pollination with wheat pollen (rel. to control) [2, 5]: 115% | Average seed set of Clofencet treated plants after pollination with wheat pollen (rel. to control) [2, 6]: 107% | Average seed set of Clofencet treated plants after pollination with wheat pollen (rel. to control) [2, 7]: 98% | Average seed set of Clofencet treated plants after pollination with wheat pollen (rel. to control) [2, 8]: 94% | Average seed set of Clofencet treated plants after pollination with wheat pollen (rel. to control) [2, 9]: 75%

O=C(O)C1CNC1 [WL84811, azetidine-3-carboxylic acid]
generation of male sterility ([3]; regular weekly watering with 1.0 mg, root treatment): very effective to generate male sterility | Average sterility relative to control after CHA ([3]; variety JB Asano): 100% | Average sterility relative to control after CHA ([3]; variety KWS Target): 100% | seed set of treated plants bagged before flowering ([3]; weekly 1.0 mg root treatment, bagged before flowering): No plant
